Experimental data published in ChEMBL document CHEMBL4219153, “Identification of second-generation P2X3 antagonists for treatment of pain” (Bioorg Med Chem Lett, 2018).

Columns and labels:
[1] = target: T1, P2X purinoceptor 3 (Homo sapiens) (UniProt P56373); experiment: Antagonist activity at recombinant human P2X3 receptor expressed in Flp-In-293 cells assessed as inhibition of alphabeta-meATP-induced calcium flux preincubated for 10 mins followed by alphabeta-meATP addition measured at 5 sec intervals by Fluo-4 dye based FLIPR assay; assay type: cell-based
T1 sequence (whole entry): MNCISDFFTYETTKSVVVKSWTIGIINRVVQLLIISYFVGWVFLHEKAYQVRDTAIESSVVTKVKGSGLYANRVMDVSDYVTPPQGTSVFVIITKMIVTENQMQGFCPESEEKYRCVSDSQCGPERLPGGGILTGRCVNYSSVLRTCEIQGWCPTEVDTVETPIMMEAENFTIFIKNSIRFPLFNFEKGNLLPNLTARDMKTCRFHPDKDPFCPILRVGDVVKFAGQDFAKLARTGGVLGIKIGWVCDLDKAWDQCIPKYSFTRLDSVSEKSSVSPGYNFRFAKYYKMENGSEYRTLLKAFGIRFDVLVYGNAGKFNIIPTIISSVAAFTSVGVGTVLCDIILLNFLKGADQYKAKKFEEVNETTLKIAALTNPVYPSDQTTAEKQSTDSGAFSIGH

[2] = Protein binding in rat plasma; assay type: ADME, cell-free; conditions: read-out: PPB (converted)
[3] = Intrinsic clearance in rat; assay type: ADME, organism-based; conditions: in vivo
[4] = Half life in rat; assay type: ADME, organism-based; conditions: in vivo
Cytochrome P450 2C9 = Cytochrome P450 2C9 (Homo sapiens, UniProt P11712); experiment: Inhibition of CYP2C9 (unknown origin); assay type: ADME
Sequence of Cytochrome P450 2C9 (P11712 whole entry): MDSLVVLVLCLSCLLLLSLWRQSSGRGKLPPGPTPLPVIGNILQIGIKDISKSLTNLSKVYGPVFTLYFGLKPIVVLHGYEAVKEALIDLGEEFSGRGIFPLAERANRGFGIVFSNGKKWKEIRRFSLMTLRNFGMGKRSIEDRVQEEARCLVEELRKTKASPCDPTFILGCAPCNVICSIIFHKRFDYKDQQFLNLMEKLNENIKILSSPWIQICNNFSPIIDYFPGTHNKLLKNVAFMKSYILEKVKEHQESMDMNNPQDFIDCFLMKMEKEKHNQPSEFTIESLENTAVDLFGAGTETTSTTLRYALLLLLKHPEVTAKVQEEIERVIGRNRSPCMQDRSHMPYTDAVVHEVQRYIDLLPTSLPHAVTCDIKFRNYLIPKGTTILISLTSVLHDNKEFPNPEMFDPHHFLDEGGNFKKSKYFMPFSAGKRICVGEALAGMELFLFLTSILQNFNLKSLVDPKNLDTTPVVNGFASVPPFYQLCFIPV

[5] = target: T2, Nuclear receptor subfamily 1 group I member 2 (Homo sapiens, UniProt O75469); experiment: Activation of PXR (unknown origin); assay type: ADME
T2 sequence (O75469 whole entry): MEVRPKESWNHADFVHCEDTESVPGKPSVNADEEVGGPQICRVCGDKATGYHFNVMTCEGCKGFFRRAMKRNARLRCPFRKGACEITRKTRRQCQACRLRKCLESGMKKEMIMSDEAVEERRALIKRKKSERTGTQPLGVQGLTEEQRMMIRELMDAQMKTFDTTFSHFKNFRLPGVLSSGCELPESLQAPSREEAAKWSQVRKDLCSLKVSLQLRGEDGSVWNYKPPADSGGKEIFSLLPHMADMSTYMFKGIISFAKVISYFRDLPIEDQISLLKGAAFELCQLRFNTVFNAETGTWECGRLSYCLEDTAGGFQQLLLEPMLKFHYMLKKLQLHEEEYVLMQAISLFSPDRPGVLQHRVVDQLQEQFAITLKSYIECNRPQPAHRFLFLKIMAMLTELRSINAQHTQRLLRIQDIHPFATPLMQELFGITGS

P2X purinoceptor 3 = target: T3, P2X purinoceptor 3 (Homo sapiens, UniProt P56373); experiment: Antagonist activity at recombinant human P2X3 receptor expressed in Flp-In-293 cells assessed as inhibition of CTP-induced […] current response preincubated for 2 mins followed by CTP addition along with test compound by whole cell patch-clamp method; assay type: cell-based
T3 sequence (P56373 whole entry): T1 sequence (whole entry)

Rattus norvegicus = experiment: Antinociceptive activity in complete freund's adjuvant induced mechanical hypersensitivity Sprague-Dawley rat model assessed as reversal of mechanical hyperalgesia by measuring hind paw withdrawal thresholds at 60 mg/kg, po; assay type: functional
PXR = target: T4, PXR (Homo sapiens, UniProt O75469); experiment: Activation of PXR (unknown origin) at 10 uM relative to control; assay type: ADME; conditions: read-out: Activity
T4 sequence (O75469 whole entry): T2 sequence (O75469 whole entry)

[6] = target: T5, UDP-glucuronosyltransferase 1A1 (Homo sapiens, UniProt P22309); experiment: Inhibition of human UGT1A1 expressed in baculovirus infected insect cells using bilirubin as substrate measured after 10 mins by HPLC analysis; assay type: ADME
T5 sequence (P22309 whole entry): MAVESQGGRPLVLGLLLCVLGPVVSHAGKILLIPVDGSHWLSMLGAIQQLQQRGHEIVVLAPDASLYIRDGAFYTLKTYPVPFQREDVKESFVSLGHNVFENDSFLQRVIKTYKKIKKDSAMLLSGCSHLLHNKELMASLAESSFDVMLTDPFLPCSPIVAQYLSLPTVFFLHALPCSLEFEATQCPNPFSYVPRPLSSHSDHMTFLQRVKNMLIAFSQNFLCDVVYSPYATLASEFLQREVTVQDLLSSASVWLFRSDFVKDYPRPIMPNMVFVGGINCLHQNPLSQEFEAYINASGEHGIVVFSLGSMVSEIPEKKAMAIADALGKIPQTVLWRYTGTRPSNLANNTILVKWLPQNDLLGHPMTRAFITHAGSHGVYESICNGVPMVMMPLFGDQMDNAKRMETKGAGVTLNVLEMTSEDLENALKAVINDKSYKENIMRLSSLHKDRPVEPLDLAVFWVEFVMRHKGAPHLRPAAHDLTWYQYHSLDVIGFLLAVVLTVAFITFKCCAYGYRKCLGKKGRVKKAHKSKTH

[7] = Oral bioavailability in rat; assay type: ADME, organism-based; conditions: in vivo
[8] = Oral bioavailability in dog; assay type: ADME, organism-based, Canis lupus familiaris; conditions: in vivo
[9] = Oral bioavailability in rhesus monkey; assay type: ADME, organism-based, Macaca mulatta; conditions: in vivo
[10] = Protein binding in dog plasma; assay type: ADME, cell-free, Canis lupus familiaris; conditions: read-out: PPB (converted)
[11] = Intrinsic clearance in dog; assay type: ADME, organism-based, Canis lupus familiaris; conditions: in vivo
[12] = Half life in dog; assay type: ADME, organism-based, Canis lupus familiaris; conditions: in vivo
[13] = target: T5, UDP-glucuronosyltransferase 1A1; experiment: Inhibition of UGT1A1 in human liver microsomes assessed as decrease in estradiol-3 glucuronidation; assay type: ADME

Row | SMILES | IC50 [1] | fraction unbound [2] | CLint scaled [3] | further results
1 | Cc1ccc(-c2cc(C(=O)NC3(c4nc(C)no4)CC3)cc(-c3ncccc3F)c2)nc1 | 170 nM | – | – | –
2 | C[C@@H](NC(=O)c1cc(-c2ccc(F)cn2)cc(C(C)(C)O)c1)c1ccc(C(F)(F)F)[n+]([O-])c1 | 82 nM | 0.447 | 477 mL/min/kg | half-life [4]: 0.48 h
3 | Cc1ccc(-c2cc(C(=O)N[C@@H](C)c3nnc[nH]3)cc(-c3ncccc3F)c2)nc1 | 10 nM | 0.012 | – | –
4 | Cc1ccc(-c2cc(C(=O)N[C@H](C)c3ccc(C(F)(F)F)[n+]([O-])c3)cc(C(C)(C)O)c2)nc1 | 5 nM | 0.376 | – | IC50 (Cytochrome P450 2C9): > 50000 nM; EC50 [5]: > 30000 nM
5 | Cc1ccc(-c2cc(C(=O)NCc3nc(C(C)C)no3)cc(-c3ncccc3F)c2)nc1 | 155 nM | – | – | –
6 | Cc1ccc(-c2cc(C(=O)N[C@H](C)c3ccc(C(F)(F)F)[n+]([O-])c3)cc(-c3ncccc3F)c2)nc1 | 5 nM | 0.048 | – | –
7 | C[C@@H](NC(=O)c1cc(-c2ccc(Cl)cc2)cc(C(C)(C)O)c1)c1ccc(C(F)(F)F)[n+]([O-])c1 | 21 nM | 0.026 | 214 mL/min/kg | half-life [4]: 2.4 h
8 | Cc1ccc(-c2cc(C(=O)N[C@@H](c3nc(C)no3)C3CC3)cc(-c3ncccc3F)c2)nc1 | 30 nM | – | – | –
9 | Cc1ccc(-c2cc(C(=O)N[C@H](C)c3ccc(C(F)(F)F)[n+]([O-])c3)cc(C(C)(C)O)c2)cc1 | 20 nM | 0.046 | 6790 mL/min/kg | half-life [4]: 0.2 h
10 | Cc1ccc(-c2cc(C(=O)NCCc3nc(C)no3)cc(-c3ncccc3F)c2)nc1 | 45 nM | – | – | –
11 | Cc1ccc(-c2cc(C(=O)N[C@H](C)c3ccc(C(F)(F)F)nc3)cc(-c3ncccc3F)c2)nc1 | 8 nM | 0.014 | – | –
12 | C[C@@H](NC(=O)c1cc(-c2ccc(Cl)cn2)cc(C(C)(C)O)c1)c1ccc(C(F)(F)F)[n+]([O-])c1 | 14 nM | 0.238 | 69 mL/min/kg | IC50 (P2X purinoceptor 3): 18 nM; EC90 (Rattus norvegicus): 160 nM; IC50 (Cytochrome P450 2C9): 82000 nM; bioavailability [7]: 13%; bioavailability [8]: 63%; half-life [4]: 1.3 h; fraction unbound [10]: 0.263; CLint scaled [11]: 7.7 mL/min/kg; half-life [12]: 3.9 h; IC50 [13]: > 20000 nM; EC50 [5]: > 30000 nM

More lines, main results first:

Row | IC50 [1] | fraction unbound [2] | CLint scaled [3] | SMILES | further results
13 | 17 nM | – | – | Cc1ccc(-c2cc(C(=O)N[C@@H](C)c3nc(C)no3)cc(-c3ncccc3F)c2)nc1 | –
14 | 21 nM | 0.016 | 133 mL/min/kg | Cc1ccc(-c2cc(C(=O)N[C@H](C)c3ccc(F)cn3)cc(C3=NO[C@H](c4ccccn4)C3)c2)nc1 | IC50 (P2X purinoceptor 3): 24 nM; EC90 (Rattus norvegicus): 3000 nM; IC50 (Cytochrome P450 2C9): 5700 nM; activity at 10 µM (PXR): 47%; IC50 [6]: 1000 nM; bioavailability [7]: 60%; bioavailability [8]: 68%; bioavailability [9]: 47%; half-life [4]: 1 h
15 | 47 nM | 0.149 | 533 mL/min/kg | Cc1ccc(-c2cc(C(=O)N[C@H](C)c3ccc(F)cn3)cc(N3CCOCC3)c2)nc1 | EC50 [5]: > 30000 nM
16 | 67 nM | 0.18 | – | Cc1ccc(-c2cc(C(=O)N[C@H](C)c3ccc(F)cn3)cc(C(C)(C)O)c2)nc1 | EC50 [5]: 2000 nM
17 | 37 nM | 0.026 | 3910 mL/min/kg | Cc1ccc(-c2cc(C(=O)N[C@H](C)c3ccc(F)cn3)cc(-n3nccn3)c2)nc1 | –
18 | 8 nM | 0.008 | 24800 mL/min/kg | Cc1ccc(-c2cc(C(=O)N[C@H](C)c3ccc(F)cn3)cc(-c3ncccc3F)c2)nc1 | EC50 [5]: 6000 nM
19 | 14 nM | 0.048 | – | Cc1ccc(-c2cc(C(=O)N[C@H](C)c3ccc(C(F)(F)F)nc3)cc(C(C)(C)O)c2)nc1 | IC50 (Cytochrome P450 2C9): 19000 nM; EC50 [5]: 18000 nM
20 | 2 nM | 0.096 | – | Cc1ccc(-c2cc(C(=O)N[C@H](C)c3ccc(F)c[n+]3[O-])cc(-c3ncccc3F)c2)nc1 | –
21 | 3 nM | 0.004 | – | Cc1ccc(-c2cc(C(=O)N[C@H](C)c3nc(C)no3)cc(-c3ncccc3F)c2)nc1 | –
22 | 284 nM | – | – | Cc1ccc(-c2cc(C(=O)N[C@H](C)c3nnc[nH]3)cc(-c3ncccc3F)c2)nc1 | –
